Assay results published in patent US20050288359A1, “Agents and methods for the treatment of disorders associated with oxidative stress” (Monash University, priority 2002, published 2005).
Where two headings read alike, the source gives them in different places.

Tests used:
[1] = In vitro antioxidant assay: oxidation of linoleic acid to conjugated diene hydroperoxide, free radical initiator AAPH, absorbance at 234 nm; assay type: biochemical
Excerpt: Lipid oxidation can usually be prevented by the addition free radical scavengers (FRS), more commonly known as antioxidants. Their role is to turn reactive and harmful molecules such as hydroxy, nitroxy and superoxide radicals into innocuous molecules that can be passed or converted by biological processes. One of the main pathways that lead to apoptosis in cells is oxidative stress. This event is a product of the action of these harmful radicals on the cell walls and membranes, leading to their breakdown. In terms of the antioxidant evaluation (Scheme 1), […] was utilised as a free radical initiator […], and the efficiency was calculated based on the formation of a conjugated diene hydroperoxide generated through the oxidation of linoleic acid in the presence and absence of a free radical scavenger. The conjugated diene hydroperoxide mimics the products of cellular oxidative stress imposed on the cell wall. The antioxidant can act at any stage of the reaction to stop or slow down the formation of the conjugated diene by reacting with the appropriate radicals (Scheme 1).
A convenient test to determine the efficiency of antioxidants in aqueous systems was setup using 2,2′-azobis(2-amidinopropane).2HCl ([…]) as a free radical initiator (Scheme 1). The production of conjugated diene hydroperoxide (LOOH) generated through the oxidation of linoleic acid in an aqueous system at 37° C. is monitored at 234 nm for 15 minutes using a Cary 100 UV-Vis spectrophotometer.
The efficiency is determined according to a standard, that is the generation of free radicals in the absence of an antioxidant. Efficiency is then calculated using the following equation: Efficiency (%)=1−[K2/K1]×100 Where: • K1=rate of oxidation of standard (no antioxidant)=[difference in absorbance]/[time (sec)] • K2=rate of oxidation with antioxidant=[difference in absorbance]/[time (sec)]
Prior to testing the efficiency of the compounds of the present invention, a number of well known antioxidants including vitamin E and ascorbic acid were tested. Each of the tests for vitamin E and ascorbic acid gave similar results to those presented in the literature. A number of other variables were tested including the amounts of antioxidant, substrate (linoleic acid) and initiator (AAPH). The optimal volumes are shown below: • 2.78 ml 0.05M phosphate buffer pH 7.4 • 30 ul of linoleic acid dispersion stock • 10 ul of 0.01M antioxidant stock
150 ul of 40 mM […] stock
When testing the efficiency of compounds of the present invention in the presence and absence of Ca^2+, HEPES buffered saline was used instead of the standard phosphate buffer and CaCl2 was used as a source of calcium ions.

[2] = system: NSC-34D motor neuron cell line; assay: Excitotoxic cell death of motor neuron cell line (MTT reduction); assay type: cell-based; settings: exposed for 72 hours
Method: FIG. 3 is a plot showing the effect of (S)-5-fluorowillardiine (“(S)-5-FW”) on survival (MTT reduction) of NSC-34D motor neuron cell line. These cells were cultured at 1×10^4 cells/well for 48 hours in DMEM/F-12 with 1% (v/v) FCS and then exposed to various concentrations of (S)-5-FW for 72 hours. MTT solution (0.5 mg/ml) was added to cultures for 2 hours, cells were solubilised and MTT reduction quantified as a percentage of […]. Statistically significant differences from control (zero (S)-5-FW) were defined using one-way ANOVA (*P<0.05, ***P<0.001).
(§1) We developed two cell culture systems that can be used to screen drugs that prevent cell death induced by oxidant stress (FIG. 3, Model A) and excitotoxicity (FIG. 4, Model B). In model A, we utilize cultured fibroblasts that are exposed to paraquat that induces significant death at 10 μM (see FIG. 3). In model B we utilize the NSC-34 motor neuron cell line that can be induced to degenerate via the glutamate excitotixic pathway using the specific agonist fluorowillardine or FW (see FIG. 4).

[3] = system: neonatal mouse fibroblasts; assay: Oxidant stress-induced cell death of fibroblasts (LDH release); assay type: cell-based
Method: FIG. 2 is a plot of the oxidant stress-induced cell death of neonatal mouse fibroblasts exposed to paraquat. Cells (5×10^3 per well) were treated overnight with freshly prepared paraquat or peroxynitrite. Culture medium from wells was assayed for lactate dehydrogenase (LDH) release as a marker of cytotoxicity. […] Values represent means±SEMs of triplicate wells, *P<0.05 difference from untreated cells. The x-axis represents concentration of Paraquat and Peroxynitrite in μM.
as §1

[4] = 0.05M phosphate buffer pH 7.4, 37° C., 15 minutes, antioxidant stock 0.01 M, final concentration 33.3 μM
[5] = HBS with calcium (67%), CaCl2 as calcium source, solvent methanol or DMSO (33%)
[6] = HBS without calcium (67%), solvent methanol or DMSO (33%)

Molecule	Efficiency [1, 4] [%]	Efficiency [1, 5] [%]	Efficiency [1, 6] [%]	also measured
CCOC(=O)CN(CC(=O)OCC)c1ccccc1OC [(5), N,N-bis(ethoxycarbonylmethyl)o-anisidine]	47	–	–	–
COc1ccccc1N(CC(=O)O)CC(=O)O [(6), N,N-bis(acetic acid)o-anisidine]	43	35	46	–
N[C@@H](Cn1cc(F)c(=O)[nH]c1=O)C(=O)O [(S)-5-FW, (S)-5-fluorowillardiine]	–	–	–	Concentration of maximal cell death effect [2]: 1000 µM; Effect on survival (MTT reduction) ([2]; various concentrations): significant cell death in concentration dependent manner
O=C1O[C@H]([C@@H](O)CO)C(O)=C1O [Ascorbic Acid]	74	–	–	–
O=C(O)CN(CC(=O)O)c1ccccc1OCCOc1ccccc1N(CC(=O)O)CC(=O)O [compound (4), bis(o-aminophenoxy)ethane-N,N,N′,N′-tetraacetic acid]	83	93	93	–
C[n+]1ccc(-c2cc[n+](C)cc2)cc1 [paraquat]	–	–	–	Cell death (LDH release as marker of cytotoxicity) ([3]; 5×10^3 cells per well, treated overnight, high doses): induced significant cell death; Concentration that induces significant death of cultured fibroblasts ([3]; model A, oxidant stress): 10 µM
O=NOO [peroxynitrite]	–	–	–	Cell death (LDH release as marker of cytotoxicity) [3]: not peroxynitrite induced significant cell death
Bis[2-(bis-ethoxycarbonylmethyl)aminophenoxy]ethane [compound (3)]	20	–	–	–
Vitamin E	93	94	90	–
